# In paper PMC12466602, “Novel Hybrid Peptide DEFB126 (1-39)-TP5 Inhibits LPS-Induced Inflammatory Responses and Oxidative Stress by Neutralizing LPS and Blocking the TLR4/MD2-NFκB Signaling Axis” (Antioxidants, 2025):
# Marks after values point to notes of the source that are not given here. Where no end group is shown, it is not given here.
# Assays:
# in vitro = conditions: rat, plasma
# Experimental: (§1) The above peptide solutions were incubated at 37 °C for varying lengths of time and then immediately transferred to pre-cooled test tubes containing 1 mL of acidic acetone (hydrochloric acid/acetone/H2O, v/v/v 1:40:5) to terminate the reaction. The concentration of the hydrochloric acid solution before dilution is 50 mM. The precipitate was subsequently separated by centrifugation at 20,000× g for 20 min at 4 °C. The obtained precipitates were dried in vacuo and then dissolved in 0.5 mL of 1 M acetic acid. Peptide analysis was conducted according to the protocol for the study of TP5 using HPLC [2]. Peptide half-lives were obtained by fitting a linear regression model based on logarithmic concentration-time.
# RAW264.7 macrophages = experiment: CCK-8 cell viability assay; conditions: 24 h; for cell survival rate: RAW264.7, 10 μg/mL peptide, CCK-8, OD450
# Experimental: RAW 264.7 cells were maintained in DMEM medium containing 10% (v/v) fetal bovine serum and 1% (v/v) penicillin-streptomycin at 37 °C, 5% CO2.
# RAW264.7 cells (3 × 10^4 cells/mL) were plated in 96-well plates in 100 μL DMEM overnight and then cultured in fresh medium containing a 2-fold concentration of peptide for another 24 h. Add 10 μL of CCK-8 solution to each well and incubate for 4 h away from light. Then, the optical density at 450 nm was measured using a microplate reader. Cell viability was determined byCell viability (%) = (OD450 (sample)/OD450 (control)) × 100%(1) where OD450 (sample) is the absorbance at 450 nm of the cells with peptides treated and OD450 (control) is the absorbance at 450 nm of the cells without peptides treated.
# LPS-induced sepsis model = experiment: Murine LPS-induced sepsis / liver injury model; format: in vivo, C57BL/6 mice; conditions: mice
# Experimental: Male C57BL/6 mice (6–8 weeks of age) were purchased from Charles River (Beijing, China). During the experiments, mice were housed in a specific-pathogen-free (SPF) environment with a temperature of 22 ± 1 °C and a relative humidity of 55 ± 10%. All the animal experiments were conducted with the approval of the Animal Care and Use Committee of China Agricultural University.
# The mice were randomly divided into five groups of 12: control, LPS (E. coli O111: B4, Sigma-Aldrich, St. Louis, MO, USA), DEFB126 + LPS, TP5 + LPS, and DTP + LPS. The corresponding peptide (10 mg/kg) was injected intraperitoneally during the pretreatment stage. The control group was synchronized with the LPS group by injecting an equal amount of saline.
# During the first 7 days of the experiment, each group received the above treatments once a day. On day 7, the LPS model group and the peptide pretreatment groups (DEFB126 + LPS, TP5 + LPS, and DTP + LPS) were injected intraperitoneally with 20 mg/kg of LPS to establish a sepsis model. The control group was injected with an equal volume of saline. Sixteen hours after the LPS injection, the mice were euthanized, and liver tissues and blood samples were collected. The serum was then separated by centrifugation and stored at −80 °C for measurement.
# Mouse liver tissues were fixed with 4% paraformaldehyde, embedded in paraffin, and sliced continuously on a rotary slicer (Leica, RM2235, Nußloch, Germany) at a thickness of 5 μm. After dewaxing and rehydration, the tissues were subjected to Hematoxylin-Eosin (H&E) contrast staining. LPS-induced liver injury was evaluated according to a previous study. The liver injury score was graded on a 0- to 3-point scale: 0, no injury; 1, mild injury with cytoplasmic vacuolation; 2, moderate to severe injury consisting of extensive loss of intercellular borders and nuclear pyknosis; and 3, severe necrosis consisting of liver hemorrhage and neutrophil infiltration.
# The levels of tumor necrosis factor (TNF)-α, interleukin (IL)-6, and IL-1β in the serum of mice were detected using commercial ELISA kits (eBioscience, San Diego, CA, USA). Commercial reagent kits (Nanjing Jiancheng Bioengineering Institute, Nanjing, China) were used to detect the levels of serum alanine amino transferase (ALT) and aspartate amino transferase (AST).
# [1] = LPS neutralization, Chromogenic End-point Tachypleus Amebocyte Lysate (CE TAL) assay; format: biochemical, E. coli; conditions: LPS 1.0 U/mL, peptide 0 to 128 μg/mL, 15 min at 37 °C, OD540; mean ± SD of 3 independent experiments
# Experimental: The LPS-neutralizing ability of the peptides was assessed through a quantitative Chromogenic End-point Tachypleus Amebocyte Lysate (CE TAL) assay (Xiamen Bioendo Technology Co., Xiamen, China). LPS (final concentration 1.0 U/mL; E. coli, O55:B5) was incubated with different concentrations of the peptides (final concentration 0 to 128 μg/mL) for 15 min at 37 °C. Then, the mixtures were incubated with TAL assay reagent at 37 °C for 6 min, and the optical density at 540 nm was measured.
# RAW264.7 cells = experiment: ROS generation (DCFH2-DA, fluorescence microscopy and flow cytometry); format: cell-based; conditions: RAW264.7, LPS 100 ng/mL 1 h, then DTP 12 h
# Experimental: RAW264.7 cells (1 × 10^5 cells/mL cell density) were incubated with LPS (100 ng/mL) at 37 °C for 1 h. After that, cells were treated with DTP at 37 °C for 12 h. The cells were then stained with 5 μM DCFH2-DA for 30 min at 37 °C in the dark. The cells were then washed extensively with PBS before analysis by fluorescence microscope and flow cytometry.
# [2] = test system: phosphorylation of IKK-β, IκB-α and NF-κB; experiment: Western blot of NF-κB signaling pathway; format: cell-based; conditions: LPS-stimulated
# Experimental: Samples were fractionated into cytoplasmic and nuclear components using the NR-PER Nuclear and Cytoplasmic Protein Extraction Kit (Thermo Fisher Scientific Inc., Waltham, MA, USA). Protein levels in each fraction were determined via a bicinchoninic acid (BCA) assay (KeyGEN Biotech, Nanjing, China). Subsequently, protein fractions were separated by 10% SDS-polyacrylamide gel electrophoresis and transferred to methanol-activated PVDF membranes (Bio-Rad, Hercules, CA, USA). After membrane transfer, the membranes were blocked with 5% skimmed milk, followed by incubation with phosphorylated antibodies: p-IKK-β, p-IкB-α, p-NF-кB (p-p65), and GAPDH (Santa Cruz), with shaking overnight at 4 °C. After TBST washing, the membranes were incubated with HRP-labeled species-matched secondary antibody (HuaAn Biologicals, Hangzhou, China) for 60 min at room temperature. The density of specific proteins was quantified using the ChemiDoc MP imaging system (Bio-Rad, Hercules, CA, USA).
# [3] = Ex vivo stability in plasma (HPLC); conditions: rat plasma, peptide 10 µg/mL, 37 °C, linear regression of log concentration-time, mean ± SD of 3 biological replicates
# Experimental: as §1
# [4] = biological target: Toll-like receptor 4/myeloid differentiation factor 2 (TLR4/MD-2) complex (UniProt Q9QUK6 26-835; Q9JHF9 19-160, The source, species and construct of the SPR protein are not stated. Mouse is inferred from the docking receptor (PDB 2Z64) and the mouse models. Limits by convention: TLR4 extracellular domain and ma); experiment: SPR; Biacore X100, CM5 chip, amine coupling; running buffer PBS with 0.05% Tween 20, 30 μL/min; peptide gradient 0, 1.25, 2.5, 5 and 10 mM as printed; 1:1 binding model; legend and results: TLR4/MD-2 immobilised and DTP flowed over (the methods say DTP was immobilised); conditions: both partners purified
# [5] = ELISA, peptide 10 mg/kg i.p. pretreatment, LPS, 16 h
# [6] = peptide 10 mg/kg i.p. once daily pretreatment, then LPS i.p., 16 h after LPS
# [7] = peptide 10 mg/kg i.p. pretreatment, LPS, 16 h
# Toll-like receptor 4/myeloid differentiation factor 2 (TLR4/MD-2) complex, sequence (Q9QUK6 26-835, chain 1 of 2): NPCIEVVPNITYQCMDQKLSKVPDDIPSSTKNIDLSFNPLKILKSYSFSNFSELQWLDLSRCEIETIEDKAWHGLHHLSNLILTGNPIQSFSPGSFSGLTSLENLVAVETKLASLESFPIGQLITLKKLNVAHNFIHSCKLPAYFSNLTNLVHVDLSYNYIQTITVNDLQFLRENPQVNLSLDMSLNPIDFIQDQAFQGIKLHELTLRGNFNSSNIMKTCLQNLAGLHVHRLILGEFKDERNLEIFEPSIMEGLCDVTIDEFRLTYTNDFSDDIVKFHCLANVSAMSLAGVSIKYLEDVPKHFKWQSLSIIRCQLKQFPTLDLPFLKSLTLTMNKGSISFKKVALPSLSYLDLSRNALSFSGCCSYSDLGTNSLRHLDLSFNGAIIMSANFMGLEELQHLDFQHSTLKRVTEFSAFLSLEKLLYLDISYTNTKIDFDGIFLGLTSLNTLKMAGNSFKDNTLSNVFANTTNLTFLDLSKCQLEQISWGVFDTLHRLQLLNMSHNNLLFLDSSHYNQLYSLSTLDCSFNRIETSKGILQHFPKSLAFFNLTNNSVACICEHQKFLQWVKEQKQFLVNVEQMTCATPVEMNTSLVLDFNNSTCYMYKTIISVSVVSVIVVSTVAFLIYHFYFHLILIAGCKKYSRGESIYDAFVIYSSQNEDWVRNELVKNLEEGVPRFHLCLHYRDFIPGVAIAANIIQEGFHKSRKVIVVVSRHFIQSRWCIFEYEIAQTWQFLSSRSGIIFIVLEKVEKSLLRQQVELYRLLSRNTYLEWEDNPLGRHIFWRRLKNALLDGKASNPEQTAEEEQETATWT
# Toll-like receptor 4/myeloid differentiation factor 2 (TLR4/MD-2) complex, sequence (Q9JHF9 19-160, chain 2 of 2): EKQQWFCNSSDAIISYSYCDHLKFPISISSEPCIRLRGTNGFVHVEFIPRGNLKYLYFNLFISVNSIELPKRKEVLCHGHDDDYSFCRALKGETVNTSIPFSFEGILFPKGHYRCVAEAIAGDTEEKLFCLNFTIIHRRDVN
Molecule,half-life at 10 µg/mL (in vitro) [h],cell survival rate (RAW264.7 macrophages),serum IL-1β level (LPS-induced sepsis model; [5]),serum IL-6 level (LPS-induced sepsis model; [5]),serum TNF-α level (LPS-induced sepsis model; [5]),"liver injury score (LPS-induced sepsis model; H&E, 0- to 3-point scale, peptide 10 mg/kg i.p. pretreatment, LPS, 16 h)",serum ALT level (LPS-induced sepsis model; [6]),serum AST level (LPS-induced sepsis model; [6]),liver CAT activity (LPS-induced sepsis model; [7]),liver GSH-Px activity (LPS-induced sepsis model; [7]),liver SOD activity (LPS-induced sepsis model; [7]),50% neutralization rate value [1],LPS-induced ROS generation (RAW264.7 cells),"LPS-induced phosphorylation of IKK-β, IκB-α and NF-κB [2]","cytotoxicity compared with parental peptides (RAW264.7 macrophages; RAW264.7, 2-fold series of concentrations, CCK-8)",t1/2 in plasma [3],Kd [4] [nM]
NWYVKKCLNDVGICKKKCKPEEMHVKNGWAMCGKQRDCCVPAD (cysteines drawn unpaired) [DEFB126],5.41 ± 0.885,higher than 80%,,,,,,,,,,,,,,,
NWYVKKCLNDVGICKKKCKPEEMHVKNGWAMCGKQRDCCRKDVY (cysteines drawn unpaired) [DTP],,higher than 80%,significantly decreased,significantly decreased,significantly decreased,"significantly lower liver injury score than the LPS-treated, TP5-pretreated, and DEFB126-pretreated groups",markedly lower than those in the TP5-pretreated group and DEFB126-pretreated group,markedly lower than those in the TP5-pretreated group and DEFB126-pretreated group,significantly reversed these effects,significantly reversed these effects,significantly reversed these effects,approximately 11.58 ± 2.07 μg/mL,remarkably attenuated,significantly inhibited,significantly lower than DEFB126 and TP5,349 ± 69.17 ^a min,
"NWYVKKCLNDVGICKKKCKPEEMHVKNGWAMCGKQRDCCRKDVY (DEFB126 (1-39): residues 21-59 of human β-defensin 126 (111 amino acids); thymopentin (TP5), the core active fragment of thymopoietin, full-length TP5; whether disulfide bonds form is left open by the authors; also called DTP; DTP peptide; source: synthetic peptide (KangLong Biochemistry, 95% purity)) [hybrid peptide DEFB126 (1-39)-TP5]",,,,,,,,,,,,,,,,,2300
